Results published in patent US20110160121A1, “UNACYLATED GHRELIN AND ANALOGS AS THERAPEUTIC AGENTS FOR VASCULAR REMODELING IN DIABETIC PATIENTS AND TREATMENT OF CARDIOVASCULAR DISEASE” (ALIZE PHARMA SAS, priority 2008, published 2011).
Where no end group is shown, it is not given here.

What was measured:
[1] = tested on: CAC; assay: CAC senescence (acidic beta-gal / SA-beta-gal activity) in cultured CAC; format: cell-based, human; settings: FIG. 2A
Protocol: (§1) To this end, the effect of AGE treatment, alone or in combination with UAG, was first evaluated on SA-β-gal activity. […] In addition, AGE-induced p53 accumulation and senescent like-growth arrest were prevented by silencing p53 (FIG. 2C).
(§2) CAC Senescence—Senescence was evaluated by acidic β-gal activity on CAC recovered from normal subjects cultured in EGM2 medium for 4 days with UAG or AGE+UAG and saline- or UAG-treated diabetic patients (Ref. 22). Briefly, CAC were washed in phosphate-buffered saline, fixed for 3 min at room temperature in 2% paraformaldehyde, washed, and incubated for 24 h at 37° C. with fresh SA-β-gal stain solution: 1 mg/ml 5-bromo-4-chloro-3-indolyl β-D-galactopyranoside (X-gal), 5 mM/liter potassium ferrocyanide, 5 mM/liter ferricyanide, 150 mM/liter NaCl, 2 mM/liter MgCl2, 0.01% sodium deoxycholate, and 0.02% Nonidet P-40. SA-β-gal-positive cells were counted manually by 3 independent investigators.

[2] = tested on: p53, p21, pRb; assay: Western blot of p53, p21 and phospho-Rb in cultured CAC; format: cell-based, human; settings: induced by AGE in cultured CAC; FIG. 2B
Description: as §1
(§3) Western Blot Analysis—CAC from healthy donors cultured in the presence of UAG, in combination or not with AGE, and CAC recovered from diabetic patients treated with saline or UAG were lysed. Protein concentration was detected as previously described (Ref. 24). 50 μg of proteins were separated on SDS-polyacrylamide gels and transferred to nitrocellulose membranes. Reaction with anti-p53, anti p21 and anti-phospho-Rb antibodies and detection with an enhanced chemiluminescence detection system (Amersham Biosciences) were performed as described previously (Ref. 20).

[3] = tested on: CAC; assay: Senescence of CAC recovered from type 2 diabetic patients treated with UAG; parameters: species or system human; settings: UAG administered in vivo, CAC recovered after 12 hours, FIG. 2D
Protocol: (§4) After 12 hours of treatment, CAC were recovered from UAG treated and untreated patients and cultured.
(§5) All the subjects underwent the following testing session: • UAG (3.0 μg/kg/h iv. as infusion for 12 h from 0 to 12 hours); • isotonic saline (infusion from 0 to 12 hours).
as §2

[4] = tested on: p53, p21, pRb; assay: Western blot of p53, p21, phospho-Rb in CAC recovered from UAG-treated diabetic patients; parameters: species or system human; settings: type 2 diabetic patients, UAG administered in vivo, CAC recovered after 12 hours; FIG. 2E
Protocol: as §4, §5, §3

[5] = tested on: CAC; assay: CAC mobilization assay in healthy subjects and diabetic patients; format: in vivo, human; settings: diabetic patients compared to normal subjects, treated for 6 hours; FIG. 3B
Protocol: This observation led to investigate the effect of UAG treatment on BM CAC mobilization. To this end, normal subject and diabetic patients were treated with UAG or saline for 6 hours. After treatment, CAC were recovered from 4 control subjects and 4 diabetic patients, analyzed by FACS analysis and counted. […] Black lines refer to preimmune IgG used as negative control and grey lines refer to surface marker expression. Similar results were obtained when CAC from untreated diabetic patients or untreated or treated healthy subjects were analyzed (data not shown).
as §5
Mobilization assay—CAC recovered from healthy subjects and diabetic patients, treated with UAG or saline for 6 h and 12 h, were evaluated. Total number of MNC was counted by 3 independent investigators. The percentage of CAC was calculated by comparing CAC obtained from diabetic patients and healthy donors, treated for 6 h and 12 h with UAG, AG or saline, to CAC recovered at time 0.

[6] = tested on: CAC; assay: Arterial morphogenesis by Q-RT-PCR (Ephrin B2, Notch1, Notch4, EphB4) of CAC from treated patients; format: in vivo, human; settings: cells obtained from treated patients, cultured with IL-3; FIG. 3D
Protocol: To confirm their vascular features, the cells recovered from patients and controls were cultured with IL-3; which is able to induce expansion and arterial morphogenesis of CD45^+ cells derived from both peripheral blood and BM (Ref. 28).
RNA isolation and quantitative real-time PCR—CAC from diabetic patients, healthy subjects and mice treated with UAG or saline were cultured in EGM-2 medium. Human arterial and venous cells were used as a positive controls. mRNA quantification was performed by Q-RT-PCR, as previously described (Ref. 24). The relative expression of Ephrin B2, Notch1, Notch4 and EphB4 were calculated by using comparative threshold cycle methods. The human and murine primer sequences used were described (Refs. 25, 26).

[7] = tested on: CAC; assay: Matrigel-plug assay: de novo vessel formation by CAC from diabetic patients in SCID mice; format: in vivo, human
Protocol: To evaluate whether CAC recovered from UAG-treated diabetic patients rescue their vasculogenic capability, de novo vessel formation was assayed in vivo. To this end, Matrigel plugs containing IL-3 and CSFE-labelled CAC, recovered from untreated or UAG-treated patients, were injected into SCID mice, 15 days after injection Matrigel plugs were recovered and analyzed by immunohistochemistry. […] On the contrary no functional vessels could be detected when CAC recovered from untreated patients were used (FIG. 4E, panel a (left)). To exclude the possibility that the neo-vessels derived from vasculogenic cells of host origin, immunofluorescence assay was performed using the anti-human HLA Class I and the anti-mouse MHC II antibodies.
Matrigel-plug assay—For murine angiogenesis assay, untreated or UAG-treated CAC, obtained from type 2 diabetic patients, were counted and resuspended in DMEM (4×10^6 in 250 μL DMEM). […]
Immunohistochemistry and immunofluorescence—For immunohistochemistry, sections from paraffin-embedded blocks of Matrigel plugs were collected onto poly-lysine-coated slides. […] The percentage of positive cells was counted in 4 non-sequential sections for each experiment at ×40 magnification. […] The number of MHC II or HLA I positive vessels was determined by counting 10 randomly selected fields in three different samples.

[8] = target: GHSR-1a (Homo sapiens, UniProt Q92847); settings: Ref. 7; cited from earlier work
Chain of GHSR-1a (Q92847 whole entry): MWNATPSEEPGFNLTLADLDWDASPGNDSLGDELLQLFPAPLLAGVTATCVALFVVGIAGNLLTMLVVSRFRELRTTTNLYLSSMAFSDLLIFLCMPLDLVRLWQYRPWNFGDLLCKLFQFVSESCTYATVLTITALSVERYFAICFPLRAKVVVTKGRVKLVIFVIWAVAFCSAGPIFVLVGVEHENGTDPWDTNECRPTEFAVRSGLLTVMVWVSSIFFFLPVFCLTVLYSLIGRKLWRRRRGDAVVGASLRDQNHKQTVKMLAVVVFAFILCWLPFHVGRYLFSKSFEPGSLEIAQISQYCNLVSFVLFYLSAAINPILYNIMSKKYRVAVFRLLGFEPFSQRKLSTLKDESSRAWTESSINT

[9] = tested on: cardiomyocytes; settings: Ref. 8; cited from earlier work

Substance: 1-NH2Gly-Ser-Ser-Phe-Leu-Ser-Pro-Glu-His-Gln-Arg-Val-Gln-Gln-Arg-Lys-Glu-Ser-Lys-Lys-Pro-Pro-Ala-Lys-Leu-Gln-Pro-Arg-28 (H-GSSFLSPEHQRVQQRKESKKPPAKLQPR; ends and bridges not checked; listed as Homo sapiens) [UAG]
- number of SA-beta-gal positive cells ([1]; UAG added to AGE-cultured CAC): significant reduction in the number of SA-β-gal positive cells
- number of senescent cells (SA-beta-gal activity) ([1]; cultured CAC, UAG alone): reduce the number of senescent cells
- p53 accumulation, p21 expression and phosphorylation of Rb [2]: prevented p53 accumulation, p21 expression and phosphorylation of Rb induced by AGE
- number of senescent cells [3]: reduced the number of senescent cells
- p53 accumulation, phosphorylation of Rb and p21 expression [4]: prevented p53 accumulation, phosphorylation of Rb and p21 expression
- number of recovered cells (CAC) [5]: strong increase in the number of recovered cells
- arterial specification (Ephrin B2, Notch1, Notch4; EphB4) [6]: able to undergo arterial specification
- de novo formation of functional vessels ([7]; CSFE-labelled CAC from UAG-treated diabetic patients, Matrigel plugs with IL-3 in SCID mice, 15 days, FIG. 4E): formed functional vessels
- origin of vessels (human HLA Class I vs mouse MHC II) ([7]; Matrigel plugs, immunofluorescence, FIG. 4F): majority of vessels are lined by human HLA Class I positive cells
- binding to GHSR-1a [8]: fails to bind GHSR-1a
- inhibition of experimentally-induced cell death [9]: inhibit experimentally-induced cell death
